What was measured:
[1] = Stability of Compound 1 in a grape syrup formulation; format: physicochemical
Method: Methylparahydroxybenzoate (126.2 mg), propylparahydroxybenzoate (20.0 mg), sodium phosphate monobasic (1%, 1.0 g) and saccharose (16.56 g) were dissolved in 100 mL purified water, vortexed for 10 min, followed by sonication for 30 min, and then filtered through a 0.45 μm filter. pH adjusted to pH 5 using 0.5 M NaOH. To 50 mL of the resultant solution was added grape flavor (LorAnnOils, 0180-0800; 1%, 0.5 mL), followed by 50 mg of Compound 1 to attain a final concentration of 1 mg/mL. Split into two 25 mL portions, one frozen, and one left at room temperature (rt) in a sealed falcon tube.

[2] = system: cytochrome P450 (1A2, 2B6, 2C8, 2C9, 2C19, 2D6, 3A4); 44 enzymes, receptors, ion channels and transporters; 13 common transporters; 7 cardiac ion channel …; test: Off-target profile (cytochrome P450, Safety Screen panel, Transporter panel, Cardiac Ion Channel panel); settings: all assays: CYP at 30 μM, panels at 10 μM, cardiac ion channels up to 300 μM
Method: Assessment of the off-target profile of Compound 1 using standardized commercially available methods (available through contract research organizations such as Eurofins Panlabs Inc, (https://www.eurofinsdiscoveryservices.com/services/in-vitro-assays/) or Evotec SE, (https://www.evotec.com/en/execute/integrated-pre-clinical-development/adme)).
The potential for off-target promiscuity in vivo was evaluated in vitro using the following assays:
Inhibition of cytochrome P450 activity (30 μM single concentration; 1A2, 2B6, 2C8, 2C9, 2C19, 2D6, 3A4)
Eurofins Discovery Safety Screen panel of 44 enzymes, receptors, ion channels and transporters (percentage inhibition at 10 μMconcentration).
Eurofins Transporter Protein Screen panel of 13 common transporters (percentage inhibition at 10 μM concentration).
Aptuit Cardiac Ion Channel panel of 7 targets (automated patch clamp assay; concentration 0 up to 300 μM).

[3] = biological target: T1, human recombinant SSAO/VAP-1 (Homo sapiens, UniProt Q16853); test: Inhibition of human recombinant SSAO/VAP-1 (Amplex Red fluorometric assay); format: biochemical; settings: 30 min incubation, 37° C., benzylamine substrate
T1 construct: a cloned cDNA template corresponding to residues 34-763 of human SSAO/VAP-1; TEV cleavage site (N); made in house
T1 sequence (Q16853 34-763): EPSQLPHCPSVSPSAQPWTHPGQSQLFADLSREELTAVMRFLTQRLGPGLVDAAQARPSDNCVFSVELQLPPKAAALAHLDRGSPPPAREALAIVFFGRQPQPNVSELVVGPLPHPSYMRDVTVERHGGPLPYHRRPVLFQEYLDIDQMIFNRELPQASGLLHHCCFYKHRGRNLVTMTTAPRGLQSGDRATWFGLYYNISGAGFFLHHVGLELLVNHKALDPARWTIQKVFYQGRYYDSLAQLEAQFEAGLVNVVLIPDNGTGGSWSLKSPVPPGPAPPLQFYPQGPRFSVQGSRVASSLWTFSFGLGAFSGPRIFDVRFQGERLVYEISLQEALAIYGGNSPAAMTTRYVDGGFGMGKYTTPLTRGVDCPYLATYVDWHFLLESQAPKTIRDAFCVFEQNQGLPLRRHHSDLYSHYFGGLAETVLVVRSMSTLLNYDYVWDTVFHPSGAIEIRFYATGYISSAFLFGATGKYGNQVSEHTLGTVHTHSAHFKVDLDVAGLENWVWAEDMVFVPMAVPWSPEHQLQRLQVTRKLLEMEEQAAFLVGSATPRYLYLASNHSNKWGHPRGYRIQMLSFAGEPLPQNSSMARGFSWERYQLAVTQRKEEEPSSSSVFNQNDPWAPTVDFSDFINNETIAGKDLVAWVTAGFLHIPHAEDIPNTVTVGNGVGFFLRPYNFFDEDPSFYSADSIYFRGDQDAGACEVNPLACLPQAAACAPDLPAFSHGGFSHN
Method: Method to Determine the Ability of Compounds of Formula I to Inhibit Human Recombinant SSAO/VAP-1
Human recombinant SSAO/VAP-1 amine oxidase activity was determined using the method as described for monoamine oxidase, copper-containing amine oxidases and related enzymes (Holt A. and Palcic M., Nat. Protoc. 2006, 1, 2498-2505). Briefly, a cloned cDNA template corresponding to residues 34-763 of human SSAO/VAP-1, and incorporating a mouse Ig kappa (κ) signal sequence, N-terminal flag epitope tag and tobacco etch virus (TEV) cleavage site, was assembled in a mammalian expression vector (pLO-CMV) by Geneart AG. This vector containing human SSAO/VAP-1 residues was transfected into CHO-K1 glycosylation mutant cell line, Lec 8. A clone stably expressing human SSAO/VAP-1 was isolated and cultured in large scale. Active human SSAO/VAP-1 was purified and recovered using immunoaffinity chromatography. This was used as the source for SSAO/VAP-1 activity. A high-throughput colorimetric assay was developed using either 96 or 384 well format. Briefly, in a standard 96 well plate assay 50 μL of purified human SSAO/VAP-1 (0.25 μg/mL) in 0.1 M sodium phosphate buffer (pH 7.4) was added into each well. […] After 30 min incubation, 50 μL of the reaction mixture containing 600 μM benzylamine (Sigma Aldrich), 120 μM Amplex Red (Sigma Aldrich) and 1.5 U/mL horseradish peroxidase (Sigma Aldrich) prepared in 0.1 M sodium phosphate buffer (pH 7.4) were added to the corresponding well. The fluorescence unit (RFU) was read every 2.5 min for 30 min at 37° C. excitation 565 nm and emission 590 nm (Optima; BMG labtech). The slope of the kinetics for each well was calculated using MARS data analysis software (BMG labtech) and this value was used to deduce the IC50 value (Dotmatics).

In the case of `N#Cc1ccc(OC/C(=C/F)CN)cc1` [Compound 1, (E)-4-((2-(aminomethyl)-3-fluoroallyl)oxy) benzonitrile], the “degradation in grape syrup formulation” value ([1]; 91 days at room temperature) is reported as “no discernible degradation”, the “Purity of Compound 1 stored at rt for 91 days as measured by HPLC/area under the curve at 265 nm” value ([1]; grape syrup formulation 1 mg/mL, pH 5, rt, 91 days) is reported as 99.785% and the “Purity of Compound 1 stored at −20° C. for 91 days as measured by HPLC/area under the curve at 265 nm” value ([1]; grape syrup formulation 1 mg/mL, pH 5, −20° C., 91 days) is reported as 99.781%. The off-target profile [2] was “favorable off-target profile” and the IC50 [3] was < 10 nM.

— patent publication US12428370B2, “Haloallylamine dual amine oxidase inhibitors” (Syntara Limited, priority 2020, dated 2025)
